Results as given in article PMC7717492 (Science translational medicine, 2019).
“Also recorded” adds a separate entry of the source.

Experiments:
MPS1 mutant cells = type: cell-based; details: CRISPR-mediated HDR knock-in
[1] = system: MELK-knockout (KO) cancer cells; details: cited from earlier work
multiple cancer types = experiment: OTS964 potency in cancer cell lines
CDK11B = CDK11B (Homo sapiens, UniProt P21127); experiment: Binding of OTS964 to different CDKs
[2] = system: CDK11B G579S / G579A cancer cells; experiment: Viability of CDK11B xDFG mutant cancer cells in OTS964; type: cell-based, human
[3] = system: A375 cells expressing H2B-mCherry; experiment: Mitotic progression after release from double-thymidine block into OTS964; type: cell-based, human
MCF7 cells = details: caspase 3-deficient breast cancer cell line; cited from earlier work
CASP3-KO lines = experiment: Dose-response of Rosa26 and CASP3-KO cells with putative caspase-3 activators; type: cell-based, human; details: four different cell lines incl. A375 and HCT116
[4] = system: Rosa26 and PAK4-KO melanoma cells; experiment: 7-point dose-response of Rosa26 and PAK4-KO cells with PF-3758309; type: cell-based; details: Homo sapiens, A-375
[5] = system: MAPK14/p38α knockout clones; experiment: Sensitivity of MAPK14/p38α knockout clones to chemotherapy agents; type: cell-based, human; details: multiple cell lines
TOV-21G HDAC6-KO cells = experiment: Drug sensitivity of HDAC6-KO ovarian cancer cells; type: cell-based, human; details: ARID1A-mutant ovarian cancer cell line
p53 knockout cells = experiment: Nutlin-3a sensitivity after p53 knockout; type: cell-based
[6] = system: OTS964-resistant HCT116 clones; experiment: Paclitaxel sensitivity of OTS964-resistant clones; details: HCT116 clones resistant to OTS964
HDAC6 knockout clones = experiment: Sensitivity of HDAC6 knockout clones to chemotherapy agents; type: cell-based, human; details: HDAC6 knockout versus control clones
FKBP12 KO clones = experiment: Rapamycin sensitivity of FKBP12 knockout clones; type: cell-based
HDAC6-KO HAP1 cells = details: cited from earlier work

Sequence of CDK11B (P21127 whole entry): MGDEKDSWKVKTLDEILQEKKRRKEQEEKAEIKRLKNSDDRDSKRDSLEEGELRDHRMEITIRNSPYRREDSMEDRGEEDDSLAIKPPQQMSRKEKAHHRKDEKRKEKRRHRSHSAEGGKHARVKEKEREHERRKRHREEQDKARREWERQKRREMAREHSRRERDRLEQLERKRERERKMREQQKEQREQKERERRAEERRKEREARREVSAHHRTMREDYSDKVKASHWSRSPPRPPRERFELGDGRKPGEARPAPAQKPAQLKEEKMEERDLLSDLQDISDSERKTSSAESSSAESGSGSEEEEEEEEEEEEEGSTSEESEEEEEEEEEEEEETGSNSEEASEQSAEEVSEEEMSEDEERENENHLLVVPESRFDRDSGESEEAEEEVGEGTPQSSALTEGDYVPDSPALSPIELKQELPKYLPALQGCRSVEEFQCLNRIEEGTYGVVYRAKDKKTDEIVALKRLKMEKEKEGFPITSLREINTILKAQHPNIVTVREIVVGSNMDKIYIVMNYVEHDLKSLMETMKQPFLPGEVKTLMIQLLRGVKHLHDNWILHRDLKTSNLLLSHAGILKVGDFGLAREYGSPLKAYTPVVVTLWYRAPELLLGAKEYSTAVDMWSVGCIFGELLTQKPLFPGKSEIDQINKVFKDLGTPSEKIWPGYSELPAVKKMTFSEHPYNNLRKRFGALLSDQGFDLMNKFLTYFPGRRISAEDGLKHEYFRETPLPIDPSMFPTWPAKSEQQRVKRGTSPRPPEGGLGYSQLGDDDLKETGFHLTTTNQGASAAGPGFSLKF

Q: With `COc1cc(OC2CCN(C)CC2)ccc1Nc1ncc2c(n1)n(C1CCCC1)c(=O)n2C` [AZ3146] as the compound, how does the “effect of MPS1 kinase domain missense mutation on drug sensitivity” value (MPS1 mutant cells) read?
A: capable of granting resistance

Q: For `CC(=O)c1cnc2ccc(-c3cc(Cl)c(O)c(Cl)c3)nc2c1N[C@H]1CC[C@H](CN(C)C)CC1` [OTS167], which “killing of MELK-KO cancer cells” value [1] is on record?
A: no decrease in potency

Q: For `Cc1cc(O)c(-c2ccc(C(C)CN(C)C)cc2)c2c1[nH]c(=O)c1sccc12` (stereo not drawn) [OTS964], which potency (multiple cancer types) is on record?
A: nanomolar potency

Q: What about the Kd (CDK11B) of the same compound?
A: 40 nM

Q: What about the “effect of CDK11B xDFG Gly→Ser (G579S) mutation on viability in drug” value ([2]; A375, A2780, DLD1 and MDA-MB-231 cells, lethal concentration of OTS964) of the same compound?
A: sufficient to restore viability

Q: What about the “effect of alanine substitution at CDK11B residue 579 on drug efficacy” value ([2]; CDK11B residue 579 alanine substitution) of the same compound?
A: sufficient to decrease the efficacy

Q: And the “effect of G579S substitution on mitotic entry and progression in drug” value ([3]; A375 cells with CDK11B G579S, lethal concentration of OTS964)?
A: rescued normal mitotic entry and progression

Q: What about the “effect on DNA replication” value ([3]; arrested cells: 4C DNA content, no 53BP1-foci) of the same compound?
A: did not perturb DNA replication

Q: What about the “effect on cell cycle” value ([3]; lethal concentration of OTS964, release from double-thymidine block) of the same compound?
A: arrested in G2

Q: And the “effect on mitotic progression” value ([3]; low concentration of OTS964, release from double-thymidine block)?
A: delayed nuclear envelope breakdown and progressed slowly through mitosis

Q: Which “IC50 value in MCF7 cells compared to caspase 3-expressing cell lines” value (MCF7 cells) does the source give for `C=CCc1cccc(/C=N/NC(=O)CN2CCN(Cc3ccccc3)CC2)c1O` [PAC-1] here?
A: higher

Q: And the “sensitivity of CASP3-KO lines compared to Rosa26 controls” value (CASP3-KO lines)?
A: identical sensitivity

Q: For `Cc1nc(Nc2[nH]nc3c2CN(C(=O)N[C@H](CN(C)C)c2ccccc2)C3(C)C)c2sccc2n1` [PF-3758309], which GI50 [4] is on record?
A: ~9 nM

Q: With `CC(C)C[C@H](NC(=O)[C@H](Cc1ccccc1)NC(=O)c1cnccn1)B(O)O` [bortezomib] as the compound, how does the “sensitivity of MAPK14/p38α knockout clones versus Rosa26 control clones” value [5] read?
A: as sensitive

Q: With `N.N.O=C([O-])C1(C(=O)[O-])CCC1.[Pt+2]` [carboplatin] as the compound, how does the “sensitivity of MAPK14/p38α knockout clones versus Rosa26 control clones” value [5] read?
A: as sensitive

Q: For `O=C(CCCCCCNC(=O)c1cnc(N(c2ccccc2)c2ccccc2Cl)nc1)NO` [citarinostat], which “sensitivity of TOV-21G HDAC6-KO cells” value (TOV-21G HDAC6-KO cells) is on record?
A: remained sensitive

Q: Which “sensitivity of MAPK14/p38α knockout clones versus Rosa26 control clones” value [5] does the source give for `Nc1ccn([C@@H]2O[C@H](CO)[C@@H](O)C2(F)F)c(=O)n1` [gemcitabine] here?
A: as sensitive

Q: With `COc1ccc(C2=N[C@@H](c3ccc(Cl)cc3)[C@@H](c3ccc(Cl)cc3)N2C(=O)N2CCNC(=O)C2)c(OC(C)C)c1` [nutlin-3a] as the compound, how does the “effect of p53 knockout on drug sensitivity” value (p53 knockout cells) read?
A: conferred resistance

Q: Which “sensitivity of OTS964-resistant clones” value [6] does the source give for `CC(=O)O[C@H]1C(=O)[C@@]2(C)[C@H]([C@H](OC(=O)c3ccccc3)[C@]3(O)C[C@H](OC(=O)[C@H](O)[C@@H](NC(=O)c4ccccc4)c4ccccc4)C(C)=C1C3(C)C)[C@]1(OC(C)=O)CO[C@@H]1C[C@@H]2O` [paclitaxel] here?
A: remained sensitive

Q: And the “effect of loss of HDAC6 on drug sensitivity” value (HDAC6 knockout clones)?
A: failed to sensitize

Q: Which “effect of FKBP12 knockout on drug sensitivity” value (FKBP12 KO clones) does the source give for `CO[C@H]1C[C@@H]2CC[C@@H](C)[C@@](O)(O2)C(=O)C(=O)N2CCCC[C@H]2C(=O)O[C@H]([C@H](C)C[C@@H]2CC[C@@H](O)[C@H](OC)C2)CC(=O)[C@H](C)/C=C(\C)[C@@H](O)[C@@H](OC)C(=O)[C@H](C)C[C@H](C)/C=C/C=C/C=C/1C` [rapamycin] here?
A: increased resistance

Q: With `O=C(CCCCCCNC(=O)c1cnc(N(c2ccccc2)c2ccccc2)nc1)NO` [ricolinostat] as the compound, how does the “sensitivity of TOV-21G HDAC6-KO cells” value (TOV-21G HDAC6-KO cells) read?
A: remained sensitive

Q: What about the “killing of HDAC6-KO HAP1 cells” value (HDAC6-KO HAP1 cells) of the same compound?
A: continued to kill; also recorded: kills

Q: For `Cn1nnc2c(C(N)=O)ncn2c1=O` [temozolomide], which “sensitivity of MAPK14/p38α knockout clones versus Rosa26 control clones” value [5] is on record?
A: as sensitive
